Test results: patent US12544431B2, “Peptides for the treatment of cancer and/or metastasis” (BCN PEPTIDES, S.A., priority 2019, dated 2026)
Entries after “also recorded” stand apart in the source; their conditions may differ. Marks after values point to notes of the source that are not given here. Where a SMILES comes first, the peptide text is derived from it. [ ]: non-standard residue; d: D form. Phe(2,4,6-Me3) = Cc1cc(C)c(C[C@H](N)C(=O)O)c(C)c1; pGlu = O=C1CC[C@@H](C(=O)O)N1

Tests used:
[1] = system: RD rhabdomyosarcoma cells; assay: Rhabdomyosarcoma metastatic mice model (RD cells i.v. in tail vein); format: in vivo, SCID/Beige mice; details: for event-free survival vs vehicle group (in words): 27-week study; for Absence of metastases, number of mice / Absence of metastases, percentage of mice / Presence of metastases (%), percentage of mice / Presence of metastases, number of mice: 27 weeks; for body weight, treated vs vehicle-treated mice (in words): along the 27-week study
Protocol: SCID/Beige female mice aged of 5 weeks were administered subcutaneously (s.c.) at day −1 with the first dose of treatment i.e. the vehicle (PBS, Phosphate buffered saline) or the peptides. On day 0, mice were injected intravenously (i.v.) in the tail vein with 2×10^6 RD rhabdomyosarcoma cells.
Body weight was evaluated twice per week for 27 weeks. Overall survival and event-free survival were determined. At necropsy, the total number of metastases were quantified and the number of metastases per mice and their localization were also reported.

[2] = system: RH30 rhabdomyosarcoma cells; assay: Matrigel-coated transwell invasion assay, RH30 cells; format: cell-based; details: for % Invasiveness RH30: % invasive cells vs non-treated control
Protocol: (§1) 10^5 RH30 or RD cells were plated in the upper chamber of a Matrigel-coated transwell (Corning) in 0.1 mL medium without FBS. Cells were previously incubated with different concentrations (0 nM, 100 nM, 200 nM, 500 nM and 1000 nM) of the peptides and peptide dimer for 48 hours, being also present in the medium during the cell invasion assay. In the lower chamber, 0.6 mL of medium with FBS was added. Cells were incubated at 37° ° C. for 24 hours.
(§2) After that, cells were fixed with 4% paraformaldehyde (Sigma) for 10 minutes, followed by washing with PBS. After removal of the Matrigel and remaining cells from the upper face of the membrane with a cotton swab, the cells present on the lower face were stained with a Hoechst dilution (Sigma) and were counted (5 fields for each well) with an inverted fluorescence microscope Nikon with a 10× objective. All experiments were made in triplicate. In Table 6 the % Invasiveness represents the mean percentage of invasive cells with respect to their controls.

[3] = system: CHLA-90 neuroblastoma cells; assay: Transwell invasion assay, CHLA-90 cells; format: cell-based
Protocol: as §1, §2
(§3) The transwell assay with CHLA-90 and BE(2)-C cell lines was done following the same conditions detailed for determining the % of invasiveness in rhabdomyosarcoma cells.
(§4) The transwell assay with neuroblastoma cell lines (CHLA-90, BE(2)-C and SK—N-BE(2)-C)) and breast cancer cell lines (MDA-MB-231 and MDA-MB-468) was performed at the same conditions detailed for determining the % of invasiveness in rhabdomyosarcoma cells.

[4] = In vitro stability, half-life in human plasma; format: in vitro ADME; details: 90% human plasma, 37° C., RP-HPLC; read-out: t½ (hours) in human plasma (converted)
Protocol: The peptides and peptide dimer synthesized and prepared in accordance with Example 1 were dissolved in water at a concentration of 6 mg/mL and warmed up to 37° C.
Human plasma was obtained as a lyophilized solid (K3 EDTA Plasma, BBI Solutions, code S112-1), reconstituted with sterile 0.9% sodium chloride solution and stored at −20° C. Human plasma was thawed and incubated at 37° C. before use.
The peptides and peptide dimer were incubated in 90% human plasma at 37° C. for different times and then precipitated with two volume equivalents of methanol. The samples were cooled in an acetone-carbon dioxide bath for a few seconds and centrifuged for 12 minutes at 4° C. at approximately 10,000 rpm. The supernatant was filtered with a 0.45 μm PVDF filter and analyzed in triplicate by RP-HPLC using an isocratic method (Eluent A=0.1% TFA in water; Eluent B=0.07% TFA in ACN, Column=Kromasil C8, 100 Å, 5 μm, 250×4.6 mm, Flow=1 mL/min, Wavelength: 220 nm, Injection volume=20 μL, Temperature=60° C.). The disappearance of the compound was determined in relation to the area of the initial time to calculate its half-life.

[5] = system: MDA-MB-468 breast cancer cells; assay: Transwell invasion assay, MDA-MB-468 cells; format: cell-based
Protocol: as §1, §2, §4

[6] = system: BE(2)-C neuroblastoma cells; assay: Neuroblastoma metastatic mice model (BE(2)-C cells i.v. in tail vein); format: in vivo, SCID/Beige mice; details: for Absence of metastases, number of mice / Absence of metastases, percentage of mice / Presence of metastases (%), percentage of mice / Presence of metastases, number of mice: 13 weeks; for event-free survival, percentage of mice / event-free survival, number of mice: 13-week study; for event-free survival, number of mice: of 9 mice
Protocol: SCID/Beige female mice aged 5 weeks were administered subcutaneously (s.c.) at day −1 with the first dose of treatment, this is the vehicle (PBS) or the peptide SEQ ID NO: 7-NH2 at doses of 1 mg/kg and 2 mg/kg. On day 0, mice were injected intravenously (i.v.) in the tail vein with 2×10^5 BE(2)-C neuroblastoma cells. Afterwards, mice were treated s.c. three times per week (every 2-3 days) for 13 weeks with vehicle PBS (n=8) and SEQ ID NO: 7—NH2 1 mg/kg (n=9) and 2 mg/kg (n=9).

[7] = system: SK-N-BE(2)-C neuroblastoma cells; assay: Transwell invasion assay, SK-N-BE(2)-C cells; format: cell-based
Protocol: as §1, §2, §4

[8] = system: MDA-MB-231 breast cancer cells; assay: Transwell invasion assay, MDA-MB-231 cells; format: cell-based
Protocol: as §1, §2, §4

[9] = system: RD rhabdomyosarcoma cells; assay: Matrigel-coated transwell invasion assay, RD cells; format: cell-based; details: % invasive cells vs non-treated control
Protocol: as §1, §2

[10] = system: BE(2)-C neuroblastoma cells; assay: Transwell invasion assay, BE(2)-C cells; format: cell-based
Protocol: as §1, §2, §3, §4

[11] = 0.5 mg/kg s.c. three times per week
[12] = 2 mg/kg s.c. three times per week
[13] = 1 mg/kg s.c. three times per week

CSCC[C@H](NC(=O)[C@H](CO)NC(=O)[C@H](CC(N)=O)NC(=O)[C@H](CO)NC(=O)[C@H](CO)NC(=O)[C@H](CC(=O)O)NC(=O)[C@H](CCCNC(=N)N)NC(=O)[C@H](CCCCN)NC(=O)[C@@H]1CCC(=O)N1)C(=O)N[C@@H](CC(=O)O)C(=O)N[C@@H](CC(C)C)C(=O)N1CCC[C@H]1C(=O)N[C@@H](CCC(=O)O)C(=O)N[C@@H](Cc1c(C)cc(C)cc1C)C(=O)N[C@@H](CCCCN)C(N)=O [SEQ ID NO: 7-NH2, Pyr-Lys-Arg-Asp-Ser-Ser-Asn-Ser-Met-Asp-Leu-Pro-Glu-Msa-Lys-NH2] ([pGlu]KRDSSNSMDLPE[Phe(2,4,6-Me3)]K-NH2)
event-free survival vs vehicle group (in words) ([1]; 0.5 mg/kg (lower dose)): did not show statistically significant difference; also recorded: did not show a significant effect | Absence of metastases, number of mice [1, 11]: 1 | Absence of metastases, percentage of mice [1, 11]: 17% | Presence of metastases (%), percentage of mice [1, 11]: 83% | Presence of metastases, number of mice [1, 11]: 5 | body weight, treated vs vehicle-treated mice (in words) ([1]; 0.5 mg/kg): vehicle-treated mice showed a statistically significant lower body weight | reduction in metastases formation ([1]; 0.5 mg/kg, vs PBS-treated mice): ~15% | number of metastases per mouse vs vehicle (in words) ([1]; 2 mg/kg (higher dose), at necropsy): statistically reduced the formation of metastases per mouse; also recorded: efficacious in the reduction of the number of metastases | Absence of metastases, number of mice [1, 12]: 5 | Absence of metastases, percentage of mice [1, 12]: 71% | Presence of metastases (%), percentage of mice [1, 12]: 29% | Presence of metastases, number of mice [1, 12]: 2 | event-free survival vs vehicle group (in words) ([1]; 2 mg/kg, Log-rank): significant difference | body weight, treated vs vehicle-treated mice (in words) ([1]; 2 mg/kg): vehicle-treated mice showed a statistically significant lower body weight | % Invasiveness RH30 ([2]; 100 nM peptide): 121.38% | % Invasiveness RH30 ([2]; 200 nM peptide): 77.38% | % Invasiveness RH30 ([2]; 500 nM peptide): 65.59% | % Invasiveness RH30 ([2]; 1000 nM peptide): 63.23% | effect on % invasiveness of RH30 cell line (in words) ([2]; concentration not stated (100-1000 nM tested)): diminishing % invasiveness without reaching significance | % Invasiveness CHLA-90 ([3]; 100 nM peptide): 94.31% | % Invasiveness CHLA-90 ([3]; 200 nM peptide): 52.37% | % Invasiveness CHLA-90 ([3]; 500 nM peptide): 38.94% | % Invasiveness CHLA-90 ([3]; 1000 nM peptide): 20.37* % | effect on CHLA-90 cell invasiveness (in words) ([3]; concentration not given): significant reduction in cell invasiveness | half-life at 0.6 mg/mL [4]: 40.5 h | % Invasiveness MDA-MB-468 ([5]; 100 nM peptide): 96.71% | % Invasiveness MDA-MB-468 ([5]; 200 nM peptide): 57.65% | % Invasiveness MDA-MB-468 ([5]; 500 nM peptide): 54.53* % | % Invasiveness MDA-MB-468 ([5]; 1000 nM peptide): 48.39* % | effect on MDA-MB-468 invasiveness (in words) ([5]; under treatment, concentration not given): clear reduction of invasiveness | Absence of metastases, number of mice [6, 13]: 2 | Absence of metastases, percentage of mice [6, 13]: 22% | Presence of metastases (%), percentage of mice [6, 13]: 78% | Presence of metastases, number of mice [6, 13]: 7 | event-free survival, percentage of mice ([6]; 1 mg/kg): 22% | event-free survival, number of mice ([6]; 1 mg/kg): 2 | Absence of metastases, number of mice [6, 12]: 5 | Absence of metastases, percentage of mice [6, 12]: 56% | Presence of metastases (%), percentage of mice [6, 12]: 44% | Presence of metastases, number of mice [6, 12]: 4 | event-free survival, percentage of mice ([6]; 2 mg/kg): 56% | event-free survival, number of mice ([6]; 2 mg/kg): 5 | % Invasiveness SK-N-BE(2)-C ([7]; 100 nM peptide): 84.35% | % Invasiveness SK-N-BE(2)-C ([7]; 200 nM peptide): 91.84% | % Invasiveness SK-N-BE(2)-C ([7]; 500 nM peptide): 73.31* % | % Invasiveness SK-N-BE(2)-C ([7]; 500 nM peptide, listed as SEQ ID NO: 7—NH2): efficacious in inhibiting invasiveness; also recorded: significant reduction | % Invasiveness SK-N-BE(2)-C ([7]; 1000 nM peptide): 52.70* % | % Invasiveness MDA-MB-231 ([8]; 100 nM peptide): 111.82% | % Invasiveness MDA-MB-231 ([8]; 200 nM peptide): 109.71% | % Invasiveness MDA-MB-231 ([8]; 500 nM peptide): 99.97% | % Invasiveness MDA-MB-231 ([8]; 1000 nM peptide (highest treatment dose)): 53.69% | % Invasiveness MDA-MB-231 ([8]; 1000 nM peptide (highest treatment dose), listed as SEQ ID NO: 7—NH2): moderate reduction | % Invasiveness RD ([9]; 100 nM peptide): 30.82* % | % Invasiveness RD ([9]; 100 nM peptide, listed as SEQ ID NO: 7—NH2): below 50% | % Invasiveness RD ([9]; 200 nM peptide): 22.94* % | % Invasiveness RD ([9]; 500 nM peptide): 17.60* % | % Invasiveness RD ([9]; 1000 nM peptide): 19.68* % | % Invasiveness BE(2)-C ([10]; 100 nM peptide): 95.15% | % Invasiveness BE(2)-C ([10]; 200 nM peptide): 60.70* % | % Invasiveness BE(2)-C ([10]; 500 nM peptide): 56.72* % | % Invasiveness BE(2)-C ([10]; 1000 nM peptide): 33.21* % | effect on BE(2)-C cell invasiveness (in words) ([10]; concentration not given): significant reduction in cell invasiveness
